# Test results published in patent publication US10166289B2, “Compositions including beta-glucans and method of use” (BIOTHERA, INC., priority 2011, dated 2019).
# How the values were obtained:
# [1] = system: human neutrophils, monocytes, B-cells, and monocyte-derived dendritic cells; assay: Binding of soluble β-glucan to immune cells, flow cytometry with glucan specific Ab BFD IV; type: cell-based; conditions: for binding to immune cells: human neutrophils, monocytes, monocyte-derived dendritic cells
# Protocol: Monocyte-derived dendritic cells (MoDCs) were prepared from blood obtained from healthy volunteers as described in Peters et al. (Advances in Experimental Medicine and Biology; 329:275-280; 1993). At day 7, the MoDCs were resuspended in RPMI 1640 supplemented with 10% human serum (Sigma-Aldrich, St. Louis, Mo.). PBMCs were obtained from healthy volunteers and similarly resuspended in RPMI 1640 supplemented with 10% human serum. The MoDCs and PBMCs were treated with vehicle alone or with IMPRIME (Biothera, Eagan, Minn.) at 100 μg/mL, 200 μg/mL, or 400 μg/mL for two hours. Binding of IMPRIME was assessed by flow cytometric analysis with a glucan specific Ab BFD IV (U.S. Pat. No. 6,084,092).
# B cells (CD19+) in PBMCs [2] = assay: Modulation of TLR 7/8 agonist CL097-induced B cell proliferation (CFSE dilution, FACS); type: cell-based; conditions: 2 μM CL097 with 50 μg/mL IMPRIME PGG, five days, 10% human serum
# Protocol: (§1) TLR activation of B cells induces cellular proliferation that can be measured by a reduction in the staining intensity of the intracellular dye, carboxyfluorescein succinimidyl ester (CFSE, Invitrogen, Life Technologies Corp., Carlsbad, Calif.). The principle behind this technique is that as a cell divides the CFSE dye is diluted in half between the daughter cells after each division.
# (§2) PBMCs obtained from healthy volunteers were treated with 2 μM CL097 (InvivoGen, San Diego, Calif.) in the presence or absence of 50 μg/mL IMPRIME PGG (Biothera, Eagan, Minn.) and cultured over five days in media containing 10% fresh human serum (Sigma-Aldrich, St. Louis, Mo.). The cells were stained with an anti-CD19 antibody (BioLegend, Inc., San Diego, Calif.) to identify the B cell subset in the PBMC mixture and intensity of CFSE staining was measured my FACS analysis (BD Biosciences, San Jose, Calif.).
# B cells (CD19+) in PBMCs [3] = assay: Modulation of TLR 9 agonist CpG 2006-induced B cell proliferation (CFSE dilution, FACS); type: cell-based; conditions: 100 nM CpG 2006 with 50 μg/mL IMPRIME PGG, five days, 10% human serum
# Protocol: as §1
# as §2, with “100 nM CpG 2006” for “2 μM CL097”
# [4] = system: monocytes (CD14+) in PBMCs; assay: Modulation of TLR 4 agonist LPS-induced co-stimulatory marker CD40 expression by monocytes (FACS); type: cell-based, human
# Protocol: PBMCs obtained from healthy volunteers were treated with 25 ng/mL LPS (InvivoGen, San Diego, Calif.) either concurrently with noted doses of IMPRIME PGG (Biothera, Eagan, Minn.) or after cells were pretreated overnight with IMPRIME PGG. The cells were cultured over five days in media containing 10% fresh human serum and then stained with an anti-CD14 antibody (BioLegend, Inc., San Diego, Calif.) to identify the monocyte subset in the PBMC mixture and an anti-CD40 antibody (BioLegend, Inc., San Diego, Calif.) to evaluate CD40 expression by FACS analysis (BD Biosciences, San Jose, Calif.).
# [5] = system: systemic pro-inflammatory cytokines; assay: Induction of systemic pro-inflammatory cytokines
Substance,binding to immune cells [1],B cell proliferation compared to PBMCs treated with only the TLR agonist (B cells (CD19+) in PBMCs [2]),B cell proliferation compared to PBMCs treated with only the TLR agonist (B cells (CD19+) in PBMCs [3]),CD40 expression effect with pre-incubation ([4]; PBMCs pre-incubated overnight with IMPRIME PGG before 25 ng/mL LPS),"CD40 expression compared to treating the PBMCs with only the TLR agonist ([4]; PBMCs, 25 ng/mL LPS concurrently with IMPRIME PGG, five days)",receptors through which immune cell subsets are bound ([1]; neutrophils and monocytes),induction of systemic pro-inflammatory cytokines [5]
laminarin [reference compound],can bind,–,–,–,–,–,–
"β(1,6)-[poly-1,3)-D-glucopyranosyl]-poly-β(1,3)-D-glucopyranose [IMPRIME PGG]",can bind,increases B cell proliferation,increases B cell proliferation,magnified,an increase in CD40 expression,"through complement binding receptors (CR2 on B-cells; CR3 on neutrophils and monocytes), not a TLR",do not appear to induce systemic pro-inflammatory cytokines
